# Reference: patent EP4745135A1 (Gluetacs Therapeutics (Shanghai) Co., Ltd., priority 2023, dated 2025)
# What was measured:
# [1] = target: T1, CK1α (Homo sapiens, UniProt P48729+Q96SW2); test: Western blot, degradation of substrate protein in hPBMCs; assay type: cell-based; details: Western blot, 24 hours of compound treatment, compounds tested at 50 nM and 500 nM (concentration for the table not stated)
# T1 construct: effects of the compounds of the present disclosure on the expression of target proteins in cells; endogenous in cells; host or cells: human PBMCs (Milecell Biotechnologies)
# [2] = target: T2, IKZF1 (Homo sapiens, UniProt Q13422+Q96SW2); test: as above; assay type: cell-based; details: Western blot, 24 hours of compound treatment, compounds tested at 50 nM and 500 nM (concentration for the table not stated)
# T2 construct: effects of the compounds of the present disclosure on the expression of target proteins in cells; endogenous in cells; host or cells: human PBMCs (Milecell Biotechnologies)
# [3] = target: T3, IKZF2 (Homo sapiens, UniProt Q96SW2+Q9UKS7); test: as above; assay type: cell-based; details: Western blot, 24 hours of compound treatment, compounds tested at 50 nM and 500 nM (concentration for the table not stated)
# T3 construct: effects of the compounds of the present disclosure on the expression of target proteins in cells; endogenous in cells; host or cells: human PBMCs (Milecell Biotechnologies)
# [4] = target: T4, IKZF3 (Homo sapiens, UniProt Q96SW2+Q9UKT9); test: as above; assay type: cell-based; details: Western blot, 24 hours of compound treatment, compounds tested at 50 nM and 500 nM (concentration for the table not stated)
# T4 construct: effects of the compounds of the present disclosure on the expression of target proteins in cells; endogenous in cells; host or cells: human PBMCs (Milecell Biotechnologies)
# [5] = target: T5, WEE1 (Homo sapiens, UniProt P30291+Q96SW2); test: as above; assay type: cell-based; details: Western blot, 24 hours of compound treatment, compounds tested at 50 nM and 500 nM (concentration for the table not stated)
# T5 construct: effects of the compounds of the present disclosure on the expression of target proteins in cells; endogenous in cells; host or cells: human PBMCs (Milecell Biotechnologies)
# [6] = tested on: GSPT1; test: as above; assay type: cell-based, Human; details: Western blot, 24 hours of compound treatment, compounds tested at 50 nM and 500 nM (concentration for the table not stated)
# [7] = target: T6, human Cereblon WT GST-tagged protein (Homo sapiens, UniProt Q96SW2); test: CRBN-binding affinity, HTRF (CEREBLON BINDING kit); details: for inhibition at 0.5 µM: read-out: Inhibition Rate at 0.5 µM (%); for inhibition at 2 µM: read-out: Inhibition Rate at 2 µM (%)
# T6 construct: purchased CISBIO 64BDCRBNPEH
# T6 sequence (Q96SW2 whole entry): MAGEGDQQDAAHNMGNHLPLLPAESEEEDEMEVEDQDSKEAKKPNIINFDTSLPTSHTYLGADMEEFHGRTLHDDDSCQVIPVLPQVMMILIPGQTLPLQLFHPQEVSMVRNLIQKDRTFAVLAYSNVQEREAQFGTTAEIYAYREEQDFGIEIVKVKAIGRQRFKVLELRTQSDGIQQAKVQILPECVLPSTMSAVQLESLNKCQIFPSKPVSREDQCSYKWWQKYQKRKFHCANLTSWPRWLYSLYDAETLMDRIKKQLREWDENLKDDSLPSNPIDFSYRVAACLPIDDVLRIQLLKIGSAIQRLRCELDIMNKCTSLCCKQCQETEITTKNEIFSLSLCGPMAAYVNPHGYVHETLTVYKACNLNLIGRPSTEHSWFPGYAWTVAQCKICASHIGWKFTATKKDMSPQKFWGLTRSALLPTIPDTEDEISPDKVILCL
# T1 sequence (P48729 whole entry): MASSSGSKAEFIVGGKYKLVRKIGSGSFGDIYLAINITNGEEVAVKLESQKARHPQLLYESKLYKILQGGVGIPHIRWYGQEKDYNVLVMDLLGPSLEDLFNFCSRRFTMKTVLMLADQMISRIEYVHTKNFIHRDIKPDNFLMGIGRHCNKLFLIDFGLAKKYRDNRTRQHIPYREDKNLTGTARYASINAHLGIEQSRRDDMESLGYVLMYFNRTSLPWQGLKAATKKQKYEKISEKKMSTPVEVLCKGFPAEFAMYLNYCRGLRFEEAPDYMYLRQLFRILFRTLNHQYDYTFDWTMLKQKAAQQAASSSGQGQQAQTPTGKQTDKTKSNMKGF
# T1 sequence (Q96SW2 whole entry): as the sequence (Q96SW2 whole entry) above
# T1 sequence (Q16531 whole entry partner): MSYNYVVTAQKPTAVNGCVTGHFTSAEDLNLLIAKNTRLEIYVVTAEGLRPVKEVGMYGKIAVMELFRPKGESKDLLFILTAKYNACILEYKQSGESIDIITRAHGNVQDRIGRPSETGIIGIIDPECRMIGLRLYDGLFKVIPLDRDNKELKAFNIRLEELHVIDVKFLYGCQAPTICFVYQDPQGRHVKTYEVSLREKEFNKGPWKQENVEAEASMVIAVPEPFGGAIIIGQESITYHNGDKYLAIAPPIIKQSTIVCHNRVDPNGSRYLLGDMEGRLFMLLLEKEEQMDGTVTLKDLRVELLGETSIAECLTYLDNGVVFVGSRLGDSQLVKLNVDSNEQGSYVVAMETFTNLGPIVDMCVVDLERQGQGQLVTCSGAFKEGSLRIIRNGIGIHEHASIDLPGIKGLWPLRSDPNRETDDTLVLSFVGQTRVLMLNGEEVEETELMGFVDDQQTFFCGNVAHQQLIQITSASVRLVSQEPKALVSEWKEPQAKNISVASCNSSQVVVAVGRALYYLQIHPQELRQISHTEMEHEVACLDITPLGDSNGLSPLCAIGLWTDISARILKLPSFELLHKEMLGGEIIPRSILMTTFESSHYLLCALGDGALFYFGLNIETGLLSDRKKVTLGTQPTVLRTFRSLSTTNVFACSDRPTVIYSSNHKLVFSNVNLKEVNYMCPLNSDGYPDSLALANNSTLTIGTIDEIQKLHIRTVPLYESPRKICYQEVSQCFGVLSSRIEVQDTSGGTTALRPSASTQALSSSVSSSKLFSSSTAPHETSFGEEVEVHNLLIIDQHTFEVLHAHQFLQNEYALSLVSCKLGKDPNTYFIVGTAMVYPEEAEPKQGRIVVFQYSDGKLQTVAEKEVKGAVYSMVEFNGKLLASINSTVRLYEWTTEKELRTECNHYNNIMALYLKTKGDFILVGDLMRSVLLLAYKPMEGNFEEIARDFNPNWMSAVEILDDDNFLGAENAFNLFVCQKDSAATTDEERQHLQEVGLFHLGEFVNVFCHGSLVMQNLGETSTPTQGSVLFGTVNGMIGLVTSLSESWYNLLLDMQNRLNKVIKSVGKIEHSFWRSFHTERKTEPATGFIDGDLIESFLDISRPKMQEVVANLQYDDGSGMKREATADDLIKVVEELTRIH
# T4 sequence (Q9UKT9 whole entry): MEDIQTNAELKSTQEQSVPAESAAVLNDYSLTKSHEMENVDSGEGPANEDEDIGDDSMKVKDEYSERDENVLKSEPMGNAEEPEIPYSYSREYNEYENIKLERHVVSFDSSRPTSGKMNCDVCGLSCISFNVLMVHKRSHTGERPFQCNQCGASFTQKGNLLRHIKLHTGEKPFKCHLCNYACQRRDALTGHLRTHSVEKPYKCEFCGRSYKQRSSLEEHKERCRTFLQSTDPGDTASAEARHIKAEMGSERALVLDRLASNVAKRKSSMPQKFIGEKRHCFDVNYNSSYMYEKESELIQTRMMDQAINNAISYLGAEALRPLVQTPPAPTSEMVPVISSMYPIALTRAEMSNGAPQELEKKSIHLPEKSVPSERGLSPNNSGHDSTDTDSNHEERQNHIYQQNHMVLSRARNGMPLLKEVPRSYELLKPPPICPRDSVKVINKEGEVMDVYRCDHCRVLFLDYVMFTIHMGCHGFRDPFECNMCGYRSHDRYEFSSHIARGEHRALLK
# T4 sequence (Q96SW2 whole entry): as the sequence (Q96SW2 whole entry) above
# T4 sequence (Q16531 whole entry partner): as the sequence (Q16531 whole entry partner) above
# T5 sequence (P30291 whole entry): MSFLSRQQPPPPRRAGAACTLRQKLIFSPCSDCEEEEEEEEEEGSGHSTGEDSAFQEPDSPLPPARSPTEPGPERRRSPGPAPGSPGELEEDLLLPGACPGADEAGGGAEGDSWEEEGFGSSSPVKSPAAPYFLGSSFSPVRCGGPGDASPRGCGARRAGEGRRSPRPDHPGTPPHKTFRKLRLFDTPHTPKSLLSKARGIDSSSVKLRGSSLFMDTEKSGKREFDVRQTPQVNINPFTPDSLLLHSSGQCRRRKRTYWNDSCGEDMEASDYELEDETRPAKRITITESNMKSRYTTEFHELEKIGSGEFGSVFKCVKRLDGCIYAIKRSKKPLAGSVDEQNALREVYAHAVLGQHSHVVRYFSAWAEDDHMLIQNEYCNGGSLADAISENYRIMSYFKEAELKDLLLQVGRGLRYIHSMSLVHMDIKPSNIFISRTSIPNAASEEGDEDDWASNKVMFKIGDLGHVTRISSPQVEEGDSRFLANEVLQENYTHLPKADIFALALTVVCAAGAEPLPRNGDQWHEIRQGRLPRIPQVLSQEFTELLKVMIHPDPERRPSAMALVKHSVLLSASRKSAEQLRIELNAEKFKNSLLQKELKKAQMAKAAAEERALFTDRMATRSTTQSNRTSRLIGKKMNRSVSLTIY
# T5 sequence (Q96SW2 whole entry): as the sequence (Q96SW2 whole entry) above
# T5 sequence (Q16531 whole entry partner): as the sequence (Q16531 whole entry partner) above
# T2 sequence (Q13422 whole entry): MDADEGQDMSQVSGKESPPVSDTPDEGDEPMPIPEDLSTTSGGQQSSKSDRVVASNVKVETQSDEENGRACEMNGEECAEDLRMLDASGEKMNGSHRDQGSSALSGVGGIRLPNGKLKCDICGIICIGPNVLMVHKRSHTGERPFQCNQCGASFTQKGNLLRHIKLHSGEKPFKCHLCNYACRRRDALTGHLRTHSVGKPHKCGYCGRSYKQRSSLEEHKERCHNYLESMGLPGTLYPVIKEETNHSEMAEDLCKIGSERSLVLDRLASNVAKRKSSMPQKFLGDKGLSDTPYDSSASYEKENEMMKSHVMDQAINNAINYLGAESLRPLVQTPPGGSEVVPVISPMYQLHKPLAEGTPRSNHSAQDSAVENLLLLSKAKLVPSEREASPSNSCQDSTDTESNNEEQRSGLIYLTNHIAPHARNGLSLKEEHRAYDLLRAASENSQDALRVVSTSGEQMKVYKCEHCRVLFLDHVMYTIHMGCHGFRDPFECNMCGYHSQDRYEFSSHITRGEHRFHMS
# T2 sequence (Q96SW2 whole entry): as the sequence (Q96SW2 whole entry) above
# T2 sequence (Q16531 whole entry partner): as the sequence (Q16531 whole entry partner) above
# T3 sequence (Q9UKS7 whole entry): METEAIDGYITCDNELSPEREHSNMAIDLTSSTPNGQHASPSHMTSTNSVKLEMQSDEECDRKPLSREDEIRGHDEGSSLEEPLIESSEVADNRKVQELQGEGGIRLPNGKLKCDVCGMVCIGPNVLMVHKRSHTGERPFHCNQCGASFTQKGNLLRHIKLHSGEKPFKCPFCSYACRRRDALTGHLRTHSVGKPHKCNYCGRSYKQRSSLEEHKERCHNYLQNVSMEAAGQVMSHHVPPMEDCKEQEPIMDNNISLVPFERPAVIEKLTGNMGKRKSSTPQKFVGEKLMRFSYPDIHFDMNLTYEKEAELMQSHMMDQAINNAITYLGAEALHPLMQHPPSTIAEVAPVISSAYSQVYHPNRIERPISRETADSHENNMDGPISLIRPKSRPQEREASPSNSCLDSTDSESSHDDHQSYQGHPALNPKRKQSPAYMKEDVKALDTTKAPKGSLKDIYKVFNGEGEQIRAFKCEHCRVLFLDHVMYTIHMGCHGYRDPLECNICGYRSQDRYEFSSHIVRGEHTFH
# T3 sequence (Q96SW2 whole entry): as the sequence (Q96SW2 whole entry) above
# T3 sequence (Q16531 whole entry partner): as the sequence (Q16531 whole entry partner) above
inhibition at 0.5 µM [7],inhibition at 2 µM [7],SMILES,CK1α substrate protein remaining % [1],IKZF 1 substrate protein remaining % [2],IKZF2 substrate protein remaining % [3],IKZF3 substrate protein remaining % [4],Wee1 substrate protein remaining % [5],GSPT1 substrate protein remaining % [6]
53 to 60%,60 to 80%,"CC1(C)CN(Cc2cccc3c2CN(C2CCC(=O)NC2=O)C3=S)CCN1C(c1ccccc1)c1ccccc1 (stereo not drawn) [GT-08231, 3-(4-((4-benzhydryl-3,3-dimethylpiperazin-1-yl)methyl)-1-thioxoisoindolin-2-yl)piperidine-2,6-dione]",B (80%< substrate protein remaining %≤ 100%),B (80%< substrate protein remaining %≤ 100%),A (0% ≤ substrate protein remaining % ≤ 80%),B (80%< substrate protein remaining %≤ 100%),A (0% ≤ substrate protein remaining % ≤ 80%),A (0% ≤ substrate protein remaining % ≤ 80%)
40 to 53%,80 to 100%,"C[C@@H]1CN(C(c2ccccc2)c2ccccc2)CCN1Cc1cccc2c1CN(C1CCC(=O)NC1=O)C2=S (stereo partly drawn) [GT-08232, 3-(4-(((R)-4-benzhydryl-2-methylpiperazin-1-yl)methyl)-1-thioxoisoindolin-2-yl)piperidine-2,6-dione]",B (80%< substrate protein remaining %≤ 100%),B (80%< substrate protein remaining %≤ 100%),A (0% ≤ substrate protein remaining % ≤ 80%),B (80%< substrate protein remaining %≤ 100%),A (0% ≤ substrate protein remaining % ≤ 80%),A (0% ≤ substrate protein remaining % ≤ 80%)
40 to 53%,60 to 80%,"O=C1CCC(N2Cc3c(CN4CCN(c5ccccc5)CC4)cccc3C2=S)C(=O)N1 (stereo not drawn) [GT-08259, 3-(4-((4-phenylpiperazin-1-yl)methyl)-1-thioxoisoindolin-2-yl)piperidine-2,6-dione]",B (80%< substrate protein remaining %≤ 100%),B (80%< substrate protein remaining %≤ 100%),B (80%< substrate protein remaining %≤ 100%),B (80%< substrate protein remaining %≤ 100%),A (0% ≤ substrate protein remaining % ≤ 80%),A (0% ≤ substrate protein remaining % ≤ 80%)
40 to 53%,80 to 100%,"O=C1CCC(N2Cc3c(CN4CCN(c5ccc(F)cc5)CC4)cccc3C2=S)C(=O)N1 (stereo not drawn) [GT-08264, 3-(4-((4-(4-fluorophenyl)piperazin-1-yl)methyl)-1-thioxoisoindolin-2-yl)piperidine-2,6-dione]",A (0% ≤ substrate protein remaining % ≤ 80%),B (80%< substrate protein remaining %≤ 100%),B (80%< substrate protein remaining %≤ 100%),A (0% ≤ substrate protein remaining % ≤ 80%),A (0% ≤ substrate protein remaining % ≤ 80%),A (0% ≤ substrate protein remaining % ≤ 80%)
40 to 53%,53 to 60%,"O=C1CCC(N2Cc3c(CN4CCN(c5ccccc5Cl)CC4)cccc3C2=S)C(=O)N1 (stereo not drawn) [GT-08265, 3-(4-((4-(2-chlorophenyl)piperazin-1-yl)methyl)-1-thioxoisoindolin-2-yl)piperidine-2,6-dione]",B (80%< substrate protein remaining %≤ 100%),B (80%< substrate protein remaining %≤ 100%),B (80%< substrate protein remaining %≤ 100%),B (80%< substrate protein remaining %≤ 100%),A (0% ≤ substrate protein remaining % ≤ 80%),A (0% ≤ substrate protein remaining % ≤ 80%)
30 to 40%,53 to 60%,"O=C1CCC(N2Cc3c(CN4CCC(c5cccc(Cl)c5Cl)CC4)cccc3C2=S)C(=O)N1 (stereo not drawn) [GT-08269, 3-(4-((4-(2,3-dichlorophenyl)piperidin-1-yl)methyl)-1-thioxoisoindolin-2-yl)piperidine-2,6-dione]",B (80%< substrate protein remaining %≤ 100%),B (80%< substrate protein remaining %≤ 100%),B (80%< substrate protein remaining %≤ 100%),B (80%< substrate protein remaining %≤ 100%),A (0% ≤ substrate protein remaining % ≤ 80%),A (0% ≤ substrate protein remaining % ≤ 80%)
60 to 80%,80 to 100%,"Cc1cc(N2CCN(Cc3cccc4c3CN(C3CCC(=O)NC3=O)C4=S)CC2)cs1 (stereo not drawn) [GT-08298, 3-(4-((4-(5-methylthiophen-3-yl)piperazin-1-yl)methyl)-1-thioxoisoindolin-2-yl)piperidine-2,6-dione]",B (80%< substrate protein remaining %≤ 100%),B (80%< substrate protein remaining %≤ 100%),B (80%< substrate protein remaining %≤ 100%),B (80%< substrate protein remaining %≤ 100%),A (0% ≤ substrate protein remaining % ≤ 80%),B (80%< substrate protein remaining %≤ 100%)
30 to 40%,80 to 100%,"CC1(C)CCC(CN2CC3CCC2CN3Cc2cccc3c2CN(C2CCC(=O)NC2=O)C3=S)=C(c2ccc(Cl)cc2)C1 (stereo not drawn) [GT-08302, 3-(4-((5-((4'-chloro-5,5-dimethyl-3,4,5,6-tetrahydro-[1,1'-biphenyl]-2-yl)methyl)-2,5-diazabicyclo[2.2.2]octan-2-yl)methyl)-1-thioxoisoindolin-2-yl)piperidine-2,6-dione]",B (80%< substrate protein remaining %≤ 100%),B (80%< substrate protein remaining %≤ 100%),B (80%< substrate protein remaining %≤ 100%),B (80%< substrate protein remaining %≤ 100%),A (0% ≤ substrate protein remaining % ≤ 80%),B (80%< substrate protein remaining %≤ 100%)

SMILES,inhibition at 0.5 µM [7],inhibition at 2 µM [7],CK1α substrate protein remaining % [1],IKZF 1 substrate protein remaining % [2],IKZF2 substrate protein remaining % [3],IKZF3 substrate protein remaining % [4],Wee1 substrate protein remaining % [5],GSPT1 substrate protein remaining % [6]
"O=C1CCC(N2Cc3c(CN4C5CCC4CN(C(c4ccccc4)c4ccccc4)C5)cccc3C2=S)C(=O)N1 (stereo not drawn) [GT-08235, 3-(4-((3-benzhydryl-3,8-diazabicyclo[3.2.1]octan-8-yl)methyl)-1-thioxoisoindolin-2-yl)piperidine-2,6-dione]",40 to 53%,80 to 100%,B (80%< substrate protein remaining %≤ 100%),B (80%< substrate protein remaining %≤ 100%),B (80%< substrate protein remaining %≤ 100%),B (80%< substrate protein remaining %≤ 100%),B (80%< substrate protein remaining %≤ 100%),A (0% ≤ substrate protein remaining % ≤ 80%)
"CC1(C)CCC(CN2C3CC2CN(Cc2cccc4c2CN(C2CCC(=O)NC2=O)C4=S)C3)=C(c2ccc(Cl)cc2)C1 (stereo not drawn) [GT-08271, 3-(4-((6-((4'-chloro-5,5-dimethyl-3,4,5,6-tetrahydro-[1,1'-biphenyl]-2-yl)methyl)-3,6-diazabicyclo[3.1.1]heptan-3-yl)methyl)-1-thioxoisoindolin-2-yl)piperidine-2,6-dione]",30 to 40%,60 to 80%,A (0% ≤ substrate protein remaining % ≤ 80%),B (80%< substrate protein remaining %≤ 100%),B (80%< substrate protein remaining %≤ 100%),B (80%< substrate protein remaining %≤ 100%),A (0% ≤ substrate protein remaining % ≤ 80%),A (0% ≤ substrate protein remaining % ≤ 80%)
"CC1(C)CCC(CN2C3CCC2CN(Cc2cccc4c2CN(C2CCC(=O)NC2=O)C4=S)C3)=C(c2ccc(Cl)cc2)C1 (stereo not drawn) [GT-08291, 3-(4-((8-((4'-chloro-5,5-dimethyl-3,4,5,6-tetrahydro-[1,1-biphenyl]-2-yl)methyl)-3,8-diazabicyclo[3.2.1]octan-3-yl)methyl)-1-thioxoisoindolin-2-yl)piperidine-2,6-dione]",20 to 30%,60 to 80%,A (0% ≤ substrate protein remaining % ≤ 80%),B (80%< substrate protein remaining %≤ 100%),B (80%< substrate protein remaining %≤ 100%),B (80%< substrate protein remaining %≤ 100%),A (0% ≤ substrate protein remaining % ≤ 80%),A (0% ≤ substrate protein remaining % ≤ 80%)
"O=C1CCC(N2Cc3c(CN4CC=C(c5ccsc5)CC4)cccc3C2=S)C(=O)N1 (stereo not drawn) [GT-08300, 3-(4-((4-(thiophen-3-yl)-3,6-dihydropyridin-1(2H)-yl)methyl)-1-thioxoisoindolin-2-yl)piperidine-2,6-dione]",40 to 53%,60 to 80%,B (80%< substrate protein remaining %≤ 100%),B (80%< substrate protein remaining %≤ 100%),A (0% ≤ substrate protein remaining % ≤ 80%),B (80%< substrate protein remaining %≤ 100%),B (80%< substrate protein remaining %≤ 100%),B (80%< substrate protein remaining %≤ 100%)
